system: YAP/TAZ-TEAD transcription; assay: Reporter gene assay for measuring the inhibition of YAP/TAZ-TEAD transcription; assay type: cell-based; conditions: Homo sapiens, HEK-293T; Hek293T cells transiently transfected with TEAD-responsive element luciferase reporter; 24 hours incubation
Protocol: Hek293T cells are cultured in DMEM supplemented with 10% fetal bovine serum, Sodium pyruvate, Sodium bicarbonate, L-glutamine. The cells are harvested and transiently transfected with TEAD-responsive element luciferase reporter. Transfected cells are plated in 384-wells plate containing pre-diluted compounds. After 24 hours incubation at 37° C./5% CO2, assay plates were cooled down to RT and levelled to an equal volume per well, prior to the addition of 25 uL luciferase substrate SteadyLite (Perkin Elmer)/well. The plate was shaken for 10 min at 600 rpm, centrifuged for 1 min at 500 rpm and measured with an Envision reader (PerkinElmer). The amount of relative light units produced by the TEAD reporter is used to calculated percent of inhibition.
The percent of reporter inhibition was calculated in the presence of a positive control inhibitor (100% inhibition) versus a condition with the presence of the vehicle basal activity of the reporter (0% inhibition). The ability of a test compound to inhibit this activity was determined as: Percentage inhibition=[1−((RLU determined in the presence of vehicle−RLU determined for sample with test compound present) divided by (RLU determined in the presence of vehicle−RLU determined for sample with positive control inhibitor))]*100 The activities of example compounds tested are depicted in Table 8. The activity ranges A, B and C refer to IC50 values in the reporter gene assay as follows: “A”: EC50<1 μM; “B”: 1 μM≤EC50≤3.0 μM and “C”: EC50>3.0 μM, NT=not tested.

| SMILES | EC50 |
| --- | --- |
| C=CC(=O)N1CCc2c(nc(-c3ccccc3)nc2-c2cnn(C(C)C)c2)C1 [Cpd. No. 57, 1-(4-(1-isopropyl-1H-pyrazol-4-yl)-2-phenyl-5,8-dihydropyrido[3,4-d]pyrimidin-7(6H)-yl)prop-2-en-1-one] | 1 to 3 µM |
| CCC(=O)N1CCc2c(nc(-c3ccc(C(F)(F)F)cc3)nc2-c2cn(C)nn2)C1 [Cpd. No. 91, 1-(4-(1-methyl-1H-1,2,3-triazol-4-yl)-2-(4-(trifluoromethyl)phenyl)-5,8-dihydropyrido[3,4-d]pyrimidin-7(6H)-yl)propan-1-one] | 1 to 3 µM |
| C=CC(=O)NC1CCc2c(nc(-c3ccccc3)nc2-c2ccn(Cc3cccnc3)n2)C1 (centres unmarked) [Cpd. No. 11, N-(2-phenyl-4-(1-(pyridin-3-ylmethyl)-1H-pyrazol-3-yl)-5,6,7,8-tetrahydroquinazolin-7-yl)acrylamide] | 1 to 3 µM |
| Cn1ccc(-c2nc(-c3ccc(C(F)(F)F)cc3)nc3c2CCN(C#N)C3)n1 [Cpd. No. 78, 4-(1-methyl-1H-pyrazol-3-yl)-2-(4-(trifluoromethyl)phenyl)-5,8-dihydropyrido[3,4-d]pyrimidine-7(6H)-carbonitrile] | 1 to 3 µM |
| Cn1ccc(-c2nc(-c3ccccc3)nc3c2CC(NS(C)(=O)=O)CC3)n1 (centres unmarked) [Cpd. No. 4, N-(4-(1-methyl-1H-pyrazol-3-yl)-2-phenyl-5,6,7,8-tetrahydroquinazolin-6-yl)methanesulfonamide] | > 3 µM |
| CCC(=O)NC1CCc2nc(-c3ccccc3)nc(-c3ccn(C)n3)c2C1 (centres unmarked) [Cpd. No. 3, N-(4-(1-methyl-1H-pyrazol-3-yl)-2-phenyl-5,6,7,8-tetrahydroquinazolin-6-yl)propionamide] | > 3 µM |
| C=CC(=O)N1CCc2c(nc(-c3ccccc3)nc2-c2ccccn2)C1 [Cpd. No. 67, 1-(2-phenyl-4-(pyridin-2-yl)-5,8-dihydropyrido[3,4-d]pyrimidin-7(6H)-yl)prop-2-en-1-one] | < 1 µM |
| CCC(=O)N1CCc2c(nc(Cc3ccc(C(F)(F)F)cc3)nc2-c2ccn(C)n2)C1 [Cpd. No. 47, 1-(4-(1-methyl-1H-pyrazol-3-yl)-2-(4-(trifluoromethyl)benzyl)-5,8-dihydropyrido[3,4-d]pyrimidin-7(6H)-yl)propan-1-one] | > 3 µM |

More lines, now with the values ahead:

| EC50 | SMILES |
| --- | --- |
| < 1 µM | C=CC(=O)N1CCc2c(nc(-c3ccc(C(F)(F)F)cc3)nc2-c2ccn(Cc3cccnc3)n2)C1 [Cpd. No. 72, 1-(4-(1-(pyridin-3-ylmethyl)-1H-pyrazol-3-yl)-2-(4-(trifluoromethyl)phenyl)-5,8-dihydropyrido[3,4-d]pyrimidin-7(6H)-yl)prop-2-en-1-one] |
| < 1 µM | C=CC(=O)N1CCc2c(nc(-c3ccccc3)nc2-c2ccccc2)C1 [Cpd. No. 64, 1-(2,4-diphenyl-5,8-dihydropyrido[3,4-d]pyrimidin-7(6H)-yl)prop-2-en-1-one] |
| < 1 µM | C=CC(=O)N1Cc2nc(-c3ccccc3)nc(-c3ccn(C)n3)c2C1 [Cpd. No. 14, 1-(4-(1-methyl-1H-pyrazol-3-yl)-2-phenyl-5,7-dihydro-6H-pyrrolo[3,4-d]pyrimidin-6-yl)prop-2-en-1-one] |
| < 1 µM | C=CC(=O)N1CCc2c(-c3ccn(C)n3)nc(-c3ccc(C(F)(F)F)cc3)nc2C1C (centres unmarked) [Cpd. No. 76, 1-(8-methyl-4-(1-methyl-1H-pyrazol-3-yl)-2-(4-(trifluoromethyl)phenyl)-5,8-dihydropyrido[3,4-d]pyrimidin-7(6H)-yl)prop-2-en-1-one] |
| < 1 µM | C=CC(=O)N1CCc2c(nc(-c3ccccc3)nc2-c2cccnc2)C1 [Cpd. No. 63, 1-(2-phenyl-4-(pyridin-3-yl)-5,8-dihydropyrido[3,4-d]pyrimidin-7(6H)-yl)prop-2-en-1-one] |
| < 1 µM | C=CC(=O)N1CCc2c(nc(-c3ccccc3)nc2-c2ccn(C(C)C)n2)C1 [Cpd. No. 60, 1-(4-(1-isopropyl-1H-pyrazol-3-yl)-2-phenyl-5,8-dihydropyrido[3,4-d]pyrimidin-7(6H)-yl)prop-2-en-1-one] |

— US12516064B2, “Tetrahydropyridopyrimidines and related analogs for inhibiting YAP/TAZ-TEAD” (THE KATHOLIEKE UNIVERSITEIT LEUVEN, priority 2022, dated 2026)
